In US11332459B2 (TEIJIN PHARMA LIMITED, priority 2017, dated 2022) one finds IC50 data, which are given here for 27 compounds.

Molecules are shown by their SMILES. Structures can show the parent of a compound that is named as a salt.

The test concerns the target T1, human TRPC6 (Homo sapiens, UniProt Q9Y210).
T1 construct: expressed in transfected cells
T1 sequence (Q9Y210 1-931): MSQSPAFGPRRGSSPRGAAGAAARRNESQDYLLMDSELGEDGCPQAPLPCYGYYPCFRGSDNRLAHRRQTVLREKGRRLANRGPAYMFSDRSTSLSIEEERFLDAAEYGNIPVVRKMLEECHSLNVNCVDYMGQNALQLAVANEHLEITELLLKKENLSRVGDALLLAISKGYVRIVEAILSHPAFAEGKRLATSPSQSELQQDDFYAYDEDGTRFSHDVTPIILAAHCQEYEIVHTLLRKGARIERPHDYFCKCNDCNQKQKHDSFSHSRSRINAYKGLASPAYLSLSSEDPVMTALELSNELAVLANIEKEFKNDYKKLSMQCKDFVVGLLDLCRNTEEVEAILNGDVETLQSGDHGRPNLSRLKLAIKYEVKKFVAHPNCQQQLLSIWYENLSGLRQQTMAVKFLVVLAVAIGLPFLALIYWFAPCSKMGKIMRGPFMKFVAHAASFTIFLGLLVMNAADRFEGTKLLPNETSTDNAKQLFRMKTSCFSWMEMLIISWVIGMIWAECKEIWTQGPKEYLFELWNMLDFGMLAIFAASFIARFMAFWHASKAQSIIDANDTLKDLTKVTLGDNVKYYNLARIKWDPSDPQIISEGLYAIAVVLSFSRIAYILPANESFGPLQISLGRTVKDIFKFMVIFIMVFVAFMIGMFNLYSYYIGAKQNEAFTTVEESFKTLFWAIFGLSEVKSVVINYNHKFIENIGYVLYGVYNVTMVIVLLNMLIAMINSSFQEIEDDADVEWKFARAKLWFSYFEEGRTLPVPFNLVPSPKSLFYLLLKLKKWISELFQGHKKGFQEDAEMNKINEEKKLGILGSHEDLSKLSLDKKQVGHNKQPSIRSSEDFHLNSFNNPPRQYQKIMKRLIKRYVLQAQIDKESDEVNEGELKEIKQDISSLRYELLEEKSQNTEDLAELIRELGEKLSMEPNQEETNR
Nature of the test: TRPC6 calcium flux assay (FLIPR, OAG-stimulated calcium influx). The class given is cell-based. To be noted: HEK293 cells stably transfected with human TRPC6, read-out: hTRPC6 Potency. The gist of the method: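 HEK293 cells stably expressing human TRPC6, loaded with calcium dye 90–120 min at RT, then given compound for 25 min before OAG (50 uM final, 0.5% DMSO) in HEPES buffer pH 7.2 with 2 mM CaCl2. Background-subtracted FLIPR peak over 180 s normalized to OAG vs buffer; IC50 from dose plot.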
Consider `N#Cc1ccc(Cn2c(N3CCC(F)(F)[C@H](N)C3)nc3cc(F)cc(F)c32)nc1` [Example 67, (R)-6-((2-(3-amino-4,4-difluoropiperidin-1-yl)-5,7-difluoro-1H-benzo[d]imidazol-1-yl)methyl)nicotinonitrile], for which the IC50 came to 272 nM.

Take `N#Cc1ccc(Cn2c(N3CC[C@H](F)[C@H](N)C3)nc3ccc(C#N)cc32)nc1` [Example 68, 2-((3R,4S)-3-amino-4-fluoropiperidin-1-yl)-1-((5-cyanopyridin-2-yl)methyl)-1H-benzo[d]imidazole-6-carbonitrile]: the IC50 worked out at 1.82 nM.

`N#Cc1ccc(Cn2c(N3CC[C@H](F)[C@H](N)C3)nc3cc(C#N)ccc32)nc1` [Example 69, 2-((3R,4S)-3-amino-4-fluoropiperidin-1-yl)-1-((5-cyanopyridin-2-yl)methyl)-1H-benzo[d]imidazole-5-carbonitrile]: the IC50 is 14.7 nM.

Turning to `N#Cc1ccc(Cn2c(N3CCC[C@H](N)C3)nc3ccccc32)nc1` [Example 70, (S)-6-((2-(3-aminopiperidin-1-yl)-1H-benzo[d]imidazol-1-yl)methyl)nicotinonitrile], the IC50 is 2.32 nM.

Take `N#Cc1ccc(Cn2c(N3CCC(F)(F)[C@H](N)C3)nc3cc(F)ccc32)nc1` [Example 71, (R)-6-((2-(3-amino-4,4-difluoropiperidin-1-yl)-5-fluoro-1H-benzo[d]imidazol-1-yl)methyl)nicotinonitrile hydrochloride]: the IC50 worked out at 5.62 nM.

With `N#Cc1ccc(Cn2c(N3CC[C@@H](F)[C@H](N)C3)nc3cc(F)c(F)cc32)nc1` [Example 72, 6-((2-((3R,4R)-3-amino-4-fluoropiperidin-1-yl)-5,6-difluoro-1H-benzo[d]imidazol-1-yl)methyl)nicotinonitrile], the IC50 worked out at 0.448 nM.

In the case of `N#Cc1ccc(Cn2c(N3CC[C@H](F)[C@H](N)C3)nc3ccccc32)nc1` [Example 73, 6-((2-((3R,4S)-3-amino-4-fluoropiperidin-1-yl)-1H-benzo[d]imidazol-1-yl)methyl)nicotinonitrile], the IC50 was determined as 1.09 nM.

Take `N#Cc1ccc(Cn2c(N3C[C@H]4C[C@@]4(CN)C3)nc3ccccc32)nc1` [Example 74, 6-((2-((1R,5S)-1-(aminomethyl)-3-azabicyclo[3.1.0]hexan-3-yl)-1H-benzo[d]imidazol-1-yl)methyl)nicotinonitrile hydrochloride]: the IC50 was found to be 380 nM.

As for `N#Cc1ccc(Cn2c(N3C[C@@H]4C[C@]4(CN)C3)nc3ccccc32)nc1` [Example 75, 6-((2-((1S,5R)-1-(aminomethyl)-3-azabicyclo[3.1.0]hexan-3-yl)-1H-benzo[d]imidazol-1-yl)methyl)nicotinonitrile hydrochloride], the IC50 came out at 81.4 nM.

On to `N#Cc1ccc(Cn2c(N3C[C@H]4CC[C@@H](N)[C@H]4C3)nc3ccccc32)nc1` [Example 76, 6-((2-((3aR,4R,6aS)-4-aminohexahydrocyclopenta[c]pyrrol-2(1H)-yl)-1H-benzo[d]imidazol-1-yl)methyl)nicotinonitrile hydrochloride], for which the IC50 came to 971 nM.

On to `N#Cc1ccc(Cn2c(N3C[C@@H]4CC[C@H](N)[C@@H]4C3)nc3ccccc32)nc1` [Example 77, 6-((2-((3aS,4S,6aR)-4-aminohexahydrocyclopenta[c]pyrrol-2(1H)-yl)-1H-benzo[d]imidazol-1-yl)methyl)nicotinonitrile hydrochloride], for which the IC50 is 10.9 nM.

On to `N#Cc1ccc(Cn2c(N3C[C@H]4CC[C@H](N)[C@H]4C3)nc3ccccc32)nc1` [Example 78, 6-((2-((3aR,4S,6aS)-4-aminohexahydrocyclopenta[c]pyrrol-2(1H)-yl)-1H-benzo[d]imidazol-1-yl)methyl)nicotinonitrile hydrochloride], for which the IC50 amounted to 70.7 nM.

For `N#Cc1ccc(Cn2c(N3C[C@@H]4CC[C@@H](N)[C@@H]4C3)nc3ccccc32)nc1` [Example 79, 6-((2-((3aS,4R,6aR)-4-aminohexahydrocyclopenta[c]pyrrol-2(1H)-yl)-1H-benzo[d]imidazol-1-yl)methyl)nicotinonitrile hydrochloride], the IC50 is 5.09 nM.

Take `N#Cc1ccc(Cn2c(N3CC[C@H](CN)C3)nc3ccccc32)nc1` [Example 80, (R)-6-((2-(3-(aminomethyl)pyrrolidin-1-yl)-1H-benzo[d]imidazol-1-yl)methyl)nicotinonitrile hydrochloride]: the IC50 worked out at 79.3 nM.

For the compound `N#Cc1ccc(Cn2c(N3CC[C@@H](CN)C3)nc3ccccc32)nc1` [Example 81, (S)-6-((2-(3-(aminomethyl)pyrrolidin-1-yl)-1H-benzo[d]imidazol-1-yl)methyl)nicotinonitrile hydrochloride], the IC50 came out at 557 nM.

Regarding `N#Cc1ccc(Cn2c(N3CC[C@H](F)[C@H](N)C3)nc3cc(Cl)c(Cl)cc32)nc1` [Example 82, 6-((2-((3R,4S)-3-amino-4-fluoropiperidin-1-yl)-5,6-dichloro-1H-benzo[d]imidazol-1-yl)methyl)nicotinonitrile hydrochloride], the IC50 was determined as 0.504 nM.

Turning to `N#Cc1ccc(Cn2c(N3CC[C@H](F)[C@H](N)C3)nc3cc(F)c(F)cc32)nc1` [Example 83, 6-((2-((3R,4S)-3-amino-4-fluoropiperidin-1-yl)-5,6-difluoro-1H-benzo[d]imidazol-1-yl)methyl)nicotinonitrile hydrochloride], the IC50 was determined as 0.906 nM.

As for `N#Cc1ccc(Cn2c(N3CCC(F)(F)[C@H](N)C3)nc3cc(F)c(F)cc32)nc1` [Example 84, (R)-6-((2-(3-amino-4,4-difluoropiperidin-1-yl)-5,6-difluoro-1H-benzo[d]imidazol-1-yl)methyl)nicotinonitrile hydrochloride], the IC50 amounted to 1.27 nM.

On to `N[C@@H]1CN(c2nc3ccccc3n2Cc2ccc(Cl)cn2)CCC1(F)F` [Example 85, (R)-1-(1-((5-chloropyridin-2-yl)methyl)-1H-benzo[d]imidazol-2-yl)-4,4-difluoropiperidin-3-amine hydrochloride], for which the IC50 stood at 7.55 nM.

Turning to `N[C@@H]1CN(c2nc3ccccc3n2Cc2ccc(Cl)cn2)CC[C@@H]1F` [Example 86, (3R,4S)-1-(1-((5-chloropyridin-2-yl)methyl)-1H-benzo[d]imidazol-2-yl)-4-fluoropiperidin-3-amine hydrochloride], the IC50 worked out at 1.37 nM.

For `N#Cc1ccc(Cn2c(N3CCC(F)(F)[C@H](N)C3)nc3c(F)cc(F)cc32)nc1` [Example 87, (R)-6-((2-(3-amino-4,4-difluoropiperidin-1-yl)-4,6-difluoro-1H-benzo[d]imidazol-1-yl)methyl)nicotinonitrile hydrochloride], the IC50 is 0.931 nM.

As to `N#Cc1ccc(Cn2c(N3CCC(F)(F)[C@H](N)C3)nc3ccc(F)cc32)nc1` [Example 88, (R)-6-((2-(3-amino-4,4-difluoropiperidin-1-yl)-6-fluoro-1H-benzo[d]imidazol-1-yl)methyl)nicotinonitrile], the IC50 came to 0.643 nM.

For `N#Cc1ccc(Cn2c(N3CCC(F)(F)[C@H](N)C3)nc3c(C(F)(F)F)cccc32)nc1` [Example 89, (R)-6-((2-(3-amino-4,4-difluoropiperidin-1-yl)-4-(trifluoromethyl)-1H-benzo[d]imidazol-1-yl)methyl)nicotinonitrile], the IC50 turned out to be 368 nM.

Regarding `N#Cc1ccc(Cn2c(N3CC[C@@H](F)[C@H](N)C3)nc3c(C(F)(F)F)cccc32)nc1` [Example 90, 6-((2-((3R,4R)-3-amino-4-fluoropiperidin-1-yl)-4-(trifluoromethyl)-1H-benzo[d]imidazol-1-yl)methyl)nicotinonitrile], the IC50 worked out at 68 nM.

For `N#Cc1ccc(Cn2c(N3CC[C@H](F)[C@H](N)C3)nc3c(C(F)(F)F)cccc32)nc1` [Example 91, 6-((2-((3R,4S)-3-amino-4-fluoropiperidin-1-yl)-4-(trifluoromethyl)-1H-benzo[d]imidazol-1-yl)methyl)nicotinonitrile], the IC50 was found to be 32.9 nM.

Consider `N#Cc1ccc(Cn2c(N3CC[C@@H](F)[C@H](N)C3)nc3cc(Cl)cnc32)nc1` [Example 92, 6-((2-((3R,4R)-3-amino-4-fluoropiperidin-1-yl)-6-chloro-3H-imidazo[4,5-b]pyridin-3-yl)methyl)nicotinonitrile], for which the IC50 came to 43.8 nM.

As to `N#Cc1ccc(Cn2c(N3CC[C@@H](F)[C@H](N)C3)nc3ncc(Cl)cc32)nc1` [Example 93, 6-((2-((3R,4R)-3-amino-4-fluoropiperidin-1-yl)-6-chloro-1H-imidazo[4,5-b]pyridin-1-yl)methyl)nicotinonitrile], the IC50 amounted to 6.85 nM.
